Laboratory results published in publication PMC10657444, “Design and evaluation of tadpole-like conformational antimicrobial peptides” (Communications Biology, 2023).
“And” between values parts separate entries of the source, which are not always exact repeats. Identical values can stand only once. Non-standard residues stand in square brackets, D forms with d. Residues, ends and D or L forms follow the SMILES beside them.

Tests used:
[1] = tested on: K. pneumoniae ATCC 700603; assay: Time-kill assay; type: cell-based, Klebsiella pneumoniae
Description: Time-kill assays were done in tubes (in 1.5 mL of LB) and antibiotics at the 1 ×, 2 ×, 4 × and 8 × MIC. Tubes were inoculated (5 × 10^6 CFU/mL) with MRSA USA 300 and K. pneumoniae ATCC 700603 and incubated at 37 °C under shaking. Serial dilutions of the cultures were plated at each desired time point (0, 1, 3, 6, and 24 h), using a multichannel pipette as follows: in line 1 of a 96-well plate, 100 µL of bacterial suspension was added, while 90 µL of 0.9% sterile saline per well was added to the other lines. At selected time points, 100 µL of bacterial suspension was transferred from the time-kill assay plate to the first line. The wells were further diluted 1 in 10 (0.9% saline) for the appropriate number of dilutions and 10 μL of each dilution was spotted in duplicate onto MH agar plates, then incubated overnight at 37°C. The colonies in each spot were counted and used to calculate the number of viable CFU/mL remaining in the original culture by considering the dilution factors.

[2] = tested on: sheep red blood cells; assay: Hemolysis assay
[3] = tested on: K. pneumoniae ATCC 700603; assay: Scanning electron microscopy; type: cell-based, Klebsiella pneumoniae; conditions: 2 × MIC, 60 min
Description: Mid-log phase bacteria (MRSA USA 300 and K. pneumoniae ATCC 700603) grown in LB broth were adjusted to a density of 5 × 10^6 CFU/mL. […] All samples were centrifuged at 8000 rpm for 5 min, washed and then resuspended in PBS. Bacterial cells were fixed with 2.5% glutaraldehyde, and then incubated at 37°C on a glass slide for 20 min. Samples were dehydrated by passing through gradient ethanol (10%, 30%, 50%, 70%, 90%, and 100%) for 5 min at each concentration. Slides were dried with an automatic critical point drying instrument (Leica EM CPD300), and a small amount of gold was sputtered onto the samples using a sputter coater system to avoid charging in the microscope. Finally, the bacteria were visualized under a field-emission scanning electron microscopy (FESEM) device (Sirion 200).

[4] = tested on: K. pneumoniae ATCC 700603; assay: Membrane permeability, SYTOX Green; type: cell-based, Klebsiella pneumoniae
Description: Fluorescent probe SYTOX^TM Green (Invitrogen/ Life Technologies, S7020) was used to analyze the effect of HT2 and RI-HT2 on membrane permeability of MRSA USA 300 and K. pneumoniae ATCC 700603 as described elsewhere. SYTOX^TM Green is a DNA binding dye that is fluorescent when bound to nucleic acids and only enters cells with compromised plasma membranes. MRSA USA 300 and K. pneumoniae ATCC 700603 were cultured in LB broth to mid log phase at 37 °C and washed with PBS and resuspended (OD595 ≈ 0.1) in the same buffer. SYTOX^TM Green was added into the cell suspension with a final concentration of 5 μM and being kept in dark for 20 min. 98 µL pre-treated cell suspension was transferred into wells of 96-well glass black plates. Then, 2 µL of compound or DMSO were added to initiate the reaction. The final concentrations of HT2 and RI-HT2 were 1 ×, 2 ×, 4 × and 8 × MIC. Fluorescence strength was measured with excitation/emission wavelength of 485/528 nm every 5 min for 60 min.

[5] = tested on: MRSA USA 300; assay: Transmission electron microscopy; type: cell-based, Staphylococcus aureus; conditions: 2 × MIC, 60 min
Description: The processing method of the samples for transmission electron microscopy (TEM) was the same as the treatment for SEM. The samples were then prefixed with 2.5% glutaraldehyde at 4°C overnight, post-fixed with osmium tetroxide for 70 min, and washed twice with PBS (pH 7.4). Subsequently, the samples were dehydrated for 10 min in a graded ethanol series (30, 50, 70, 90, and 100%) followed by 10 min in a mixture of absolute ethanol and acetone (1:1, v/v) and 10 min in absolute acetone. The specimens were transferred to a mixture of absolute acetone and epoxy resin (1:1, v/v) for 30 min and then to pure epoxy resin overnight at a constant temperature. Finally, the samples were sectioned using an ultramicrotome, stained with uranyl acetate and lead citrate, and then observed by TEM (Hitachi H-7650, Japan).

## CC[C@@H](C)[C@@H](NC(=O)[C@@H](Cc1ccccc1)NC(=O)[C@@H](Cc1ccccc1)NC(=O)[C@@H](Cc1ccccc1)NC(=O)[C@H](N)Cc1ccccc1)C(=O)N[C@H](CCCNC(=N)N)C(=O)N[C@H](CCCNC(=N)N)C(=O)N[C@H](CC(C)C)C(=O)N[C@H](Cc1ccccc1)C(=O)N[C@H](CCCNC(=N)N)C(N)=O [RI-HT2] (H-[dF][dF][dF][dF][dI][dR][dR][dL][dF][dR]-NH2; N-terminus assumed)
[1]; 2 × MIC, 0 h
  viable count, time-kill: 12000000 CFU/mL and 16000000 CFU/mL and 14000000 CFU/mL
[1]; 2 × MIC, 1 h
  viable count, time-kill: 10000 CFU/mL and 17000 CFU/mL and 15000 CFU/mL
[1]; 2 × MIC, 3 h
  viable count, time-kill: 100 CFU/mL
[1]; 2 × MIC, 6 h
  viable count, time-kill: 220000 CFU/mL and 310000 CFU/mL and 270000 CFU/mL
[1]; 2 × MIC, 24 h
  viable count, time-kill: 1000000000000 CFU/mL and 1300000000000 CFU/mL
[1]; 4 × MIC, 0 h
  viable count, time-kill: 12000000 CFU/mL and 16000000 CFU/mL and 14000000 CFU/mL
[1]; 4 × MIC, 1 h
  viable count, time-kill: 2500 CFU/mL and 3500 CFU/mL and 3000 CFU/mL
[1]; 4 × MIC, 3 h
  viable count, time-kill: 0 CFU/mL
[1]; 4 × MIC, 6 h
  viable count, time-kill: 24000 CFU/mL and 32000 CFU/mL and 30000 CFU/mL
[1]; 4 × MIC, 24 h
  viable count, time-kill: 3800000 CFU/mL and 3400000 CFU/mL
[1]; 8 × MIC
  time to complete killing: 3 h
[1]; 8 × MIC, 0 h
  viable count, time-kill: 12000000 CFU/mL and 16000000 CFU/mL and 14000000 CFU/mL
[1]; 8 × MIC, 1 h
  viable count, time-kill: 300 CFU/mL and 500 CFU/mL
[1]; 8 × MIC, 3 h
  viable count, time-kill: 0 CFU/mL
[1]; 8 × MIC, 6 h
  viable count, time-kill: 0 CFU/mL
[1]; 8 × MIC, 24 h
  viable count, time-kill: 0 CFU/mL
[1]; MIC, 0 h
  viable count, time-kill: 12000000 CFU/mL and 16000000 CFU/mL and 14000000 CFU/mL
[1]; MIC, 1 h
  viable count, time-kill: 270000 CFU/mL and 230000 CFU/mL and 250000 CFU/mL
[1]; MIC, 3 h
  viable count, time-kill: 23000 CFU/mL and 16000 CFU/mL and 17000 CFU/mL
[1]; MIC, 6 h
  viable count, time-kill: 3400000 CFU/mL and 2800000 CFU/mL and 3800000 CFU/mL
[1]; MIC, 24 h
  viable count, time-kill: 1000000000000 CFU/mL and 1200000000000 CFU/mL and 1700000000000 CFU/mL
[2]; 6.25 µM
  OD450, hemolysis (Fig 2b), replicates: 0.01607 (2×) and 0.02078 and 0.0162 (2×) and 0.02093
[2]; 12.5 µM
  OD450, hemolysis (Fig 2b), replicates: 0.02038 (2×) and 0.02274 and 0.02054 (2×) and 0.02291
[2]; red cells of sheep, 1 h
  HC10 (concentration inducing 10% hemolysis): > 100.0 µM
[3]
  cell surface morphology by SEM (in words): rough, shrunken, wrinkled and partially damaged
[4]; 2 × MIC, time 0 min
  Fluorescence intensity: 1284 and 1283 and 1287
[4]; 2 × MIC, time 5 min
  Fluorescence intensity: 3609 and 3355 and 3304
[4]; 2 × MIC, time 10 min
  Fluorescence intensity: 8683 and 7973 and 7881
[4]; 2 × MIC, time 15 min
  Fluorescence intensity: 14691 and 13649 and 13959
[4]; 2 × MIC, time 20 min
  Fluorescence intensity: 20043 and 18959 and 19659
[4]; 2 × MIC, time 25 min
  Fluorescence intensity: 24616 and 23653 and 24172
[4]; 2 × MIC, time 30 min
  Fluorescence intensity: 28652 and 27362 and 28393
[4]; 2 × MIC, time 35 min
  Fluorescence intensity: 31775 and 30780 and 31899
[4]; 4 × MIC, time 0 min
  Fluorescence intensity: 1309 and 1246 and 1149
[4]; 4 × MIC, time 5 min
  Fluorescence intensity: 36231 and 38899 and 38058
[4]; 4 × MIC, time 10 min
  Fluorescence intensity: 55462 and 53189 and 56098
[4]; 4 × MIC, time 15 min
  Fluorescence intensity: 60865 and 61985 and 61514
[4]; 4 × MIC, time 20 min
  Fluorescence intensity: 61161 and 60954 and 60896
[4]; 4 × MIC, time 25 min
  Fluorescence intensity: 61613 and 62061 and 61850
[4]; 4 × MIC, time 30 min
  Fluorescence intensity: 62160 and 62706 and 62610
[4]; 4 × MIC, time 35 min
  Fluorescence intensity: 62714 and 61385 and 61471
[4]; 8 × MIC, time 0 min
  Fluorescence intensity: 1294 and 1162 and 1248
[4]; 8 × MIC, time 5 min
  Fluorescence intensity: 46731 and 44912 and 46760
[4]; 8 × MIC, time 10 min
  Fluorescence intensity: 54425 and 53299 and 56314
[4]; 8 × MIC, time 15 min
  Fluorescence intensity: 62319 and 60472 and 61594
[4]; 8 × MIC, time 20 min
  Fluorescence intensity: 64747 and 64976 and 65277
[4]; 8 × MIC, time 25 min
  Fluorescence intensity: 65628 and 65784 and 65550
[4]; 8 × MIC, time 30 min
  Fluorescence intensity: 65623 and 66146 and 65510
[4]; 8 × MIC, time 35 min
  Fluorescence intensity: 66248 and 66493 and 66011
[4]; 8 × MIC, time 40 min
  Fluorescence intensity: 66880
[4]; MIC, time 0 min
  Fluorescence intensity: 1004 and 1023 and 1031
[4]; MIC, time 5 min
  Fluorescence intensity: 2234 and 2276 and 2181
[4]; MIC, time 10 min
  Fluorescence intensity: 3718 and 3745 and 3579
[4]; MIC, time 15 min
  Fluorescence intensity: 5602 and 5647 and 5393
[4]; MIC, time 20 min
  Fluorescence intensity: 7978 and 7923 and 7560
[4]; MIC, time 25 min
  Fluorescence intensity: 10663 and 10527 and 10076
[4]; MIC, time 30 min
  Fluorescence intensity: 13390 and 13373 and 12886
[4]; MIC, time 35 min
  Fluorescence intensity: 16041 and 16009 and 15623
[4]; MIC, time 40 min
  Fluorescence intensity: 18514 and 18484 and 18179
[4]; dose-dependent
  time to highest SYTOX Green fluorescence intensity: ≤ 40 min
[5]
  membrane and intracellular structure by TEM (in words): cytoplasmic membranes became blurred and separated
